Measured values as given in paper PMC7200681, “The calcitonin-like system is an ancient regulatory system of biomineralization” (Scientific Reports, 2020).
Bridge positions count the residues as written; N and C are the ends.

Assays:
mussel CALCRIa = assay: Calcium mobilization assay (apoaequorin bioluminescence), dose-response, HEK 293 cells expressing mussel CALCRIa; type: cell-based, Mytilus galloprovincialis; conditions: calcium mobilization, HEK 293/apoaequorin, 1 μM to 0.01 nM
Excerpt: (§1) The complete sequence of the Mediterranean mussel CALCRIa was amplified using specific primers (Table 1) from cDNA of a tissue mixture (mantle, adductor muscle, gills, gonads) using a proofreading DNA polymerase (iProof BIORAD, Portugal) and cloned into the pGEMT-easy vector (PROMEGA, Spain). The Mediterranean mussel CALCRIIa transcript that was found in the mantle transcriptome was incomplete and lacked the N-terminus (by comparisons with the hard-shelled mussel homologue) and so the remaining sequence (from 1–393 bp) was deduced from the hard-shelled mussel homologue receptor and the receptor was synthesised and supplied by GENESCRIPT (USA). The complete transcripts for mussel CALCRIc, CALCRIIb and CALCRIIc were only found in the hard-shelled mussel mantle transcriptome and homologues were only found in the Mediterranean mussel genome as they were absent from the species mantle transcriptome and so they were also synthesised and supplied by GENESCRIPT (USA) using the hard-shelled mussel receptor sequences as template. The mussel CALCRIb transcript was incomplete and lacked both N and C-terminal regions and it was not possible to obtain the complete transcript either by searching both mussels mantle transcriptomes or the Mediterranean mussel genome and so it was not produced. All synthetized receptors were provided in the pUC57 cloning vector by the company and receptor codon usage was optimized to favour a high level of expression in mammalian cells.
(§2) Mammalian cell cultures and transfections followed the methodology described by[89],[90]. Mammalian HEK293 cells (ECACC, UK) were used and they were maintained in complete Dulbecco’s modified Eagle’s medium (DMEM, 4.5 g/l glucose, 110 mg/l sodium pyruvate and L-glutamine, SIGMA-ALDRICH, Spain) supplemented with 10% sterile foetal bovine serum (FBS), 0.1% penicillin: streptomycin antibiotic mix (10,000 U:10 mg/ml, Sigma) and 250 μg /ml sterile filtered 1:100 amphotericin B solution (SIGMA-ALDRICH) in a humid 5% CO2 incubator (HERAEUS, Portugal) at 37 °C. On the day prior to transfection, 2–3 × 10^5 HEK293 cells were seeded on 6 well plates (SARSTEDT, Portugal) and transfected with Fugene HD transfection reagent (2 DNA: 4 Fugene ratio, PROMEGA) following the manufacturer’s protocol. Seventy-two hours after transfection, 800 μg/ml of the antibiotic Geneticin (SIGMA-ALDRICH) was added to the medium to select and isolate stable receptor cell lines. Cell recovery was monitored daily and the medium was changed every two days until no cell death was observed. […]
(§3) HEK293 cells stably expressing five mussel receptors (CALCRIa, CALCRIc, CALCRIIa, CALCRIIb and CALCRIIc) were stimulated with the two mussel peptides and the vertebrate (human and salmon) calcitonins. Receptor activation was assessed in vitro by measuring two intracellular signalling pathways: a) production of cAMP and b) mobilization of calcium (Ca^2+). The cellular response was initially assessed using 10 μM of each peptide. […]
(§4) Stable cell lines expressing the mussel receptors were transiently co-transfected with the mitochondrial targeted apo-aequorin protein cloned in pcDNA3.1. Two days after transfection cells were washed, counted and resuspended in 1 ml of DMEM /F12 Ham (without phenol red)/0.1% BSA supplemented with 2 µM coelenterazine (SIGMA-ALDRICH). […] The injector system of the Biotek Synergy 4 microplate reader (USA) was used to inject 50 µl of the cell suspensions into wells containing 50 μl of the diluted peptide in DMEM / F12 Ham / 0.1% BSA. […]

mussel CALCRIIa = assay: Calcium mobilization assay (apoaequorin bioluminescence), dose-response, HEK 293 cells expressing mussel CALCRIIa; type: cell-based, Mytilus galloprovincialis; conditions: calcium mobilization, HEK 293/apoaequorin, 1 μM to 0.01 nM
Excerpt: as §1, §2, §3, §4

[1] = tested on: acid phosphatase (AP) activity in mussel mantle edge; assay: Acid phosphatase (TRAP) activity in mantle after ex-vivo incubation; set-up: species or system Mytilus galloprovincialis; conditions: after exposure to CALCIIa 10 μM or ouabain 2 mM; TRAP assay, pNPP, pH 5.3; p < 0.05
Description: (A) Esterase activity and (B) Acid phosphatase activity. Enzyme activity was quantified in protein extracts from the mantle of control or challenged samples that were incubated with the mussel CALCIIa peptide. Values represent the mean ± SEM (CA, n = 6 and TRAP, n = 10) performed in duplicate. Prism GraphPad v5 software was used to assess the significance of the differences between the groups using One-way Anova and Tukey’s multiple comparison test. […] C - control; P - peptide (10 μM); O - ouabain (2 mM), OP - ouabain (2 mM) and peptide (10 μM); PreOP - pre stimulation for 1 hour with the peptide and 4 hours incubation with OP.
The posterior mantle edge region of the Mediterranean mussel was collected and washed in culture medium. The composition of the culture medium was as described in[91] […] The culture medium was supplemented with heat inactivated 2% FBS (SIGMA-ALDRICH), 0.1% penicillin: streptomycin antibiotic mix (10.000 U:10 mg/ml, SIGMA-ALDRICH) and 250 μg/ml sterile filtered 1:100 amphotericin B solution (Sigma-Aldrich). The posterior mantle edge from mussels was collected into culture medium and cut into fragments of approximately 1–2 mm in length. […]
Acid phosphatase activity of the mantle protein extracts (n = 6/ group) was determined using 96 well-plates (GREINER, Germany) and a tartrate resistant acid phosphatase (TRAP) assay as described in[93].

“H-CTWGGGMSDEMCSTVDIDEIQRSFQVIHDRNSP-NH2 (disulfide 1-12 (inferred)) [CALCIIa, Mediterranean mussel calcitonin-like mature peptide, 33 aa, synthesized with disulphide bond and C-terminal amidation]” was tested, and the “Activation of mussel CALCRIa in dose-response analysis (in words)” value (mussel CALCRIa) was “not activated”, the “Activation of mussel CALCRIIa in dose-response analysis (in words)” value (mussel CALCRIIa) was “not activated” and the “Acid phosphatase (AP) activity in mantle edge compared to control (in words)” value [1] was “significantly decreased”.
